Values after ≈ are worked out from the molar mass of the structure shown. “Also recorded” adds a separate entry of the source.
Assays:
[1] = system: Proteus mirabilis No. 825; test: Minimum inhibitory concentration by agar dilution method; assay type: cell-based; conditions: NO.825, read-out: Minimum inhibitory concentration
Description: (§1) The comparative in vitro activities of these antibiotics against various microorganisms of the genus Proteus are shown in the following Table 6.
(§2) Minimum inhibitory concentration
(§3) (γ/ml : by agar dilution method)

[2] = system: Proteus rettgeri Hambrook; test: as above; assay type: cell-based; conditions: Providencia rettgeri, read-out: Minimum inhibitory concentration
Description: as §1, §2, §3

[3] = system: Proteus vulgaris Abbott JJ; test: as above; assay type: cell-based; conditions: read-out: Minimum inhibitory concentration
Description: as §1, §2, §3

[4] = system: Proteus mirabilis Finland 9; test: as above; assay type: cell-based; conditions: FINLAND9, read-out: Minimum inhibitory concentration
Description: as §1, §2, §3

Proteus rettgeri Booth = test: as above; assay type: cell-based; conditions: Providencia rettgeri, read-out: Minimum inhibitory concentration
Description: as §1, §2, §3

Proteus morganii Jenkins = test: as above; assay type: cell-based; conditions: Morganella morganii, read-out: Minimum inhibitory concentration
Description: as §1, §2, §3

Proteus mirabilis No. 39 = test: as above; assay type: cell-based; conditions: NO.39, read-out: Minimum inhibitory concentration
Description: as §1, §2, §3

[5] = system: specific enzyme system which inactivates gentamicin C1a or kanamycin by acetylating; assay type: biochemical, Pseudomonas aeruginosa; conditions: acetylating enzyme of KY 8510 and 8516 strains
[6] = system: Proteus vulgaris ATCC 6897; test: Minimum inhibitory concentration by agar dilution method; assay type: cell-based; conditions: ATCC6897, read-out: Minimum inhibitory concentration
Description: Antibacterial spectra of XK-62-2 by agar
as §1, §2, §3

[7] = system: Pseudomonas aeruginosa KY 8520; test: as above; assay type: cell-based; conditions: KY8520, clinical isolate, Table 7
Description: as §2, §3

[8] = system: Pseudomonas aeruginosa KY 8516; test: as above; assay type: cell-based; conditions: Pseudomonas aeruginosa, KY8516; agar dilution; clinical isolate; Table 7
Description: as §2, §3

[9] = system: Pseudomonas aeruginosa KY 4276; test: as above; assay type: cell-based; conditions: KY4276, clinical isolate, Table 7
Description: as §2, §3

[10] = system: Pseudomonas aeruginosa KY 8512; test: as above; assay type: cell-based; conditions: KY8512, clinical isolate, Table 7
Description: as §2, §3

[11] = system: Pseudomonas aeruginosa KY 8515; test: as above; assay type: cell-based; conditions: KY8515, clinical isolate, Table 7
Description: as §2, §3

[12] = system: Pseudomonas aeruginosa KY 8514; test: as above; assay type: cell-based; conditions: KY8514, clinical isolate, Table 7
Description: as §2, §3

[13] = system: Pseudomonas aeruginosa KY 8510; test: as above; assay type: cell-based; conditions: Pseudomonas aeruginosa, KY8510; agar dilution; clinical isolate; Table 7
Description: as §2, §3

[14] = system: Pseudomonas aeruginosa KY 8511; test: as above; assay type: cell-based; conditions: KY8511, clinical isolate, Table 7
Description: as §2, §3

[15] = system: Pseudomonas aeruginosa KY 8562; test: as above; assay type: cell-based; conditions: KY8562, clinical isolate, Table 7
Description: as §2, §3

Solubility = assay type: physicochemical
[16] = system: Bacillus subtilis No. 10707; test: Activity (unit/mg) of isolated preparations; paper disk method using an agar plate; assay type: cell-based
Experimental: (§4) After the completion of fermentation, the culture liquor is adjusted to a pH of 2.0 with 12N sulfuric acid and stirred for 30 minutes. Then, about 10 kg of a filter aid, Radiolite No. 600 (product of Showa Kagaku Kogyo Co., Ltd., Japan) is added thereto and the microbial cells are removed by filtration. The filtrate is adjusted to a pH of 8.0 with 6N sodium hydroxide and passed through a column packed with about 50 l of a cation exchange resin, Amberlite IRC-50 (ammonia form). The active substance is adsorbed on the resin and the eluate is discarded. After washing the resin with water, the active substance is eluted out with 1N aqueous ammonia.
Active fractions are combined and concentrated in vacuo to about 5 l. The concentrate is then adjusted to a pH of 8.0 with 6N sulfuric acid and passed through a column packed with 1 l of an anion exchange resin, Dowex 1×2 (OH^- form). The column is washed with about 5 l of water and the effluent and the washings containing active substance are combined and are concentrated to 1/15 by volume. […] The resultant precipitate is removed by filtration and the filtrate is concentrated to 500 ml. The concentrate is adjusted to a pH of 4.5 with 6N sulfuric acid and 2.5 l of methanol is added thereto. […] The precipitate is separated by filtration and washed with methanol.
as §4, with “of” for “of a filter aid,”, “(trade name)” for “(product of Showa Kagaku Kogyo Co., Ltd., Japan)”, “The” for “The active substance is adsorbed on the resin and the”

[17] = Example 2, free base, Mm-628 ATCC 21827
[18] = Example 6, free base, Micromonospora purpurea ATCC 15835
[19] = Example 7, free base, Micromonospora echinospora ATCC 15837 NRRL 2985
[20] = Example 7, free base, Micromonospora echinospora var. ferruginea NRRL 2995
[21] = Example 7, free base, Micromonospora echinospora var. pallida NRRL 2996

## NC[C@H]1O[C@H](O[C@H]2[C@H](O)[C@@H](O[C@H]3O[C@H](CO)[C@@H](O)[C@H](N)[C@H]3O)[C@H](N)C[C@@H]2N)[C@H](O)[C@@H](O)[C@@H]1O [kanamycin]
[1]
  MIC: 0.04 µg/mL (≈ 0.0826 µM)
[2]
  MIC: 0.08 µg/mL (≈ 0.165 µM)
[3]
  MIC: 0.16 µg/mL (≈ 0.33 µM)
[4]
  MIC: 0.04 µg/mL (≈ 0.0826 µM)
Proteus rettgeri Booth
  MIC: 0.08 µg/mL (≈ 0.165 µM)
Proteus morganii Jenkins
  MIC: 0.16 µg/mL (≈ 0.33 µM)
Proteus mirabilis No. 39
  MIC: 0.33 µg/mL (≈ 0.681 µM)
[5]
  Inactivation by acetylation (6'-NH2): inactivates
[6]
  MIC: 0.34 µg/mL (≈ 0.702 µM)
[7]
  MIC: 104 µg/mL (≈ 215 µM)
[8]
  MIC: 26 µg/mL (≈ 53.7 µM)
[9]
  MIC: 1.63 µg/mL (≈ 3.36 µM)
[10]
  MIC: 3.3 µg/mL (≈ 6.81 µM)
[11]
  MIC: 416 µg/mL (≈ 859 µM)
[12]
  MIC: 208 µg/mL (≈ 429 µM)
[13]
  MIC: 13 µg/mL (≈ 26.8 µM)
[14]
  MIC: 13 µg/mL (≈ 26.8 µM)
[15]
  MIC: 167 µg/mL (≈ 345 µM)

## CNC[C@@H]1CC[C@@H](N)[C@@H](O[C@H]2[C@H](O)[C@@H](O[C@H]3OC[C@](C)(O)[C@H](NC)[C@H]3O)[C@H](N)C[C@@H]2N)O1 [sulfate of XK-62-2]
Solubility; acetone
  Solubility in acetone: insoluble
Solubility; methanol
  Solubility in methanol: poorly soluble; also recorded: insoluble
Solubility; water
  Solubility in water: very soluble
[16]; Example 4, sulfate
  Activity: 792 unit/mg

## CN[C@@H]1[C@@H](O)[C@@H](O[C@@H]2[C@@H](O)[C@H](O[C@H]3O[C@H]([C@@H](C)NC)CC[C@H]3N)[C@@H](N)C[C@H]2N)OC[C@]1(C)O [gentamicin C1, reference compound]
[16]; [17]
  Activity: 880 unit/mg
[16]; [18]
  Activity: 821 unit/mg
[16]; [19]
  Activity: 906 unit/mg
[16]; [20]
  Activity: 830 unit/mg
[16]; [21]
  Activity: 940 unit/mg

## CN[C@@H]1[C@@H](O)[C@@H](O[C@@H]2[C@@H](O)[C@H](O[C@H]3O[C@H]([C@@H](C)N)CC[C@H]3N)[C@@H](N)C[C@H]2N)OC[C@]1(C)O [gentamicin C2, reference compound]
[16]; [17]
  Activity: 925 unit/mg
[16]; [18]
  Activity: 880 unit/mg
[16]; [19]
  Activity: 845 unit/mg
[16]; [20]
  Activity: 853 unit/mg
[16]; [21]
  Activity: 859 unit/mg

## [H]/N=C(/N)N[C@H]1[C@H](O)[C@@H](O)[C@H](O[C@@H]2O[C@@H](C)[C@](O)(C=O)[C@H]2O[C@@H]2O[C@@H](CO)[C@H](O)[C@@H](O)[C@@H]2NC)[C@@H](N/C(N)=N\[H])[C@@H]1O [streptomycin]
[1]
  MIC: > 40 µg/mL
[2]
  MIC: > 40 µg/mL
[3]
  MIC: > 40 µg/mL
[4]
  MIC: > 40 µg/mL
Proteus rettgeri Booth
  MIC: > 40 µg/mL
Proteus morganii Jenkins
  MIC: > 40 µg/mL
Proteus mirabilis No. 39
  MIC: > 40 µg/mL
[6]
  MIC: > 40 µg/mL
[7]
  MIC: 5.2 µg/mL (≈ 8.94 µM)
[8]
  MIC: 0.65 µg/mL (≈ 1.12 µM)
[9]
  MIC: 2.6 µg/mL (≈ 4.47 µM)
[10]
  MIC: 42 µg/mL (≈ 72.2 µM)
[11]
  MIC: 624 µg/mL (≈ 1070 µM)
[12]
  MIC: 156 µg/mL (≈ 268 µM)
[13]
  MIC: 0.65 µg/mL (≈ 1.12 µM)
[14]
  MIC: > 2500 µg/mL
[15]
  MIC: 156 µg/mL (≈ 268 µM)

From US4045298A, “Antibiotic XK-62-2 and process for production thereof” (priority 1972, dated 1977)
